# Reference: patent publication US6844336B2, “4-fluoroalkyl-2h-benzopyrans with anti-estogenic activity” (Schering AG, priority 2000, dated 2005)
# Test system: density of the trabecular bone in the proximal tibia of ovariectomized rats
# Experiment: Bone studies in ovariectomized rats (bone density of proximal tibia by pQCT)
# Design: species or system rat
# Details: three-month-old ovariectomized female rats, once daily for 28 days, 0.1 mg/kg/animal/day p.o., pQCT ex vivo
# Method: Three-month-old female rats are ovariectomized and treated once daily with the test compound immediately after the operation for 28 days. The administration is carried out subcutaneously in arachis oil/ethanol or it is carried out perorally. The animals are sacrificed on the day after the last administration, and tibiae as well as uteri are removed. The uteri are weighed, fixed and worked up for histological studies. The determination of the bone density is carried out ex vivo on prepared long bones using pQCT (quantitative computer tomography). The measurements are performed at a distance of 4-6 mm from the ball of the joint of the proximal tibia.
# By the ovariectomy, the density of the trabecular bone in the measured area is reduced by about 400 mg of Ca^2+/cm^3 to about 300 mg of Ca^2+/cm^3. By the treatment with a compound of general formula I according to this invention (dosage of 0.1 mg/kg/animal/day p.o.), the degradation of the bone density in the proximal tibia is prevented or inhibited.
structure (smiles),measurement,value
"Oc1ccc(C2=C(C(F)(F)F)c3ccc(O)cc3OC2c2ccc(OCCN3CCCCC3)cc2)cc1 (single isomer, unassigned; (+)) [Example 1, (+)-7-Hydroxy-3-(4-hydroxyphenyl)-2-[4-(2-piperidin-1-ylethoxy)-penyl]-4(trifluoromethyl)-2H-1-benzopyran]",bone protection in comparison to the control that was subjected to a sham operation,73%
